≈ marks a conversion by molar mass, not a printed value.

Series [1] can be described thus: Dissolving DHEA in water with amphiphilic block copolymers (film hydration, centrifugation, HPLC assay of supernatant). Type of series: physicochemical. To be noted: 25 °C, thermodynamic from solid, no polymer ("natural" solubility).
Protocol: (§1) The measurement is performed by UV spectrometry or HPLC on an aqueous solution, prepared beforehand, of from 20 to 80° C. for 2 hours, followed by cooling to 25° C. The assay is performed 24 hours after this preparation on the supernatant obtained after centrifuging the suspension to remove all crystals, or on the pellet in the case of solubilization of oily molecules, the centrifugation resulting in creaming of the portion that is not encapsulated in the micelles.
(§2) The solubility gain is calculated relative to the “natural” solubility of the lipophilic compound in water.
A short description of series [2]: Dissolving Parsol 1789 in water with amphiphilic block copolymers (film hydration, centrifugation, HPLC assay of supernatant). Format: physicochemical. To be noted: 25 °C, thermodynamic from solid, no polymer ("natural" solubility).
Protocol: as §1
The supernatant, which should not contain any crystals that may be identified using an optical microscope in polarized light, is taken up and then assayed by HPLC.
as §2

For orientation: solubility means how much of the substance goes into solution per volume. The low end stands for a poorly soluble substance, the high end for a readily soluble substance. The molecule `C[C@]12CC[C@H](O)CC1=CC[C@@H]1[C@@H]2CC[C@]2(C)C(=O)CC[C@@H]12` [DHEA, dehydroepiandrosterone] had a solubility at 24 h in series [1] of 1 µg/mL (≈ 3.47 µM).

In turn, `COc1ccc(C(=O)CC(=O)c2ccc(C(C)(C)C)cc2)cc1` [Parsol 1789, 4-(tert-butyl)-4′-methoxydibenzoylmethane] yielded a solubility at 24 h in series [2] of 1 µg/mL (≈ 3.22 µM).

The record behind these values is patent publication US20060024337A1, “Process for dissolving lipophilic compounds in aqueous solution with amphiphilic block copolymers, and cosmetic composition” (priority 2002, published 2006).
